Measurements reported in patent US6673839B1, “Pharmaceutical compositions with antitumour activity” (Universita' Degli Studi di Catania, priority 1998, dated 2004).
Where a name gives a salt, the structure may show the parent alone.

Experiments:
[1] = system: multirecurrent urinary bladder neoplasia; test: Patients with urinary bladder multirecurrent neoplasia treated orally; assay type: in vivo, human
Source text: 10 patients, 8 males and 2 females, of age from 55 to 75 years, all affected with multirecurrent urinary bladder neoplasia, at stages ranging from pT1G1NxMx and pT2G3NxMx, were orally treated with L-aC, at a standard dosage of 2 g/day, for a time from 10 to 12 months. They were then subjected to follow-up ranging from 6 to 22 months.
Before treatment with L-aC, patients had undergone an individual number of endoscopic resections (Turb), varying from 6 to 19 and in 1 case partial cystectomy with ureterocystoneostomy had been performed.
In all patients, treatment with L-aC started immediately after endoscopic resection.
Patients were subjected to quarterly endoscopic verification for the first year from the beginning of the treatment.
After 4 negative quarterly controls, the endoscopic control was performed every six months for a duration of 2 years.

[2] = system: tumour cells from lymph nodes; test: Effects of L-aC on cell cycle of cultured secondary human tumour cells; assay type: cell-based; details: 20 mg/ml
Description: L-aC was tested on tumour cells from lymph nodes taken from the same patients from which the primitive neoplasms had been taken.

[3] = system: Acute promyelocytic leukemia cell line (HL60); test: Methylene blue assay on stabilized human neoplastic cell lines; assay type: cell-based
Description: (§1) The effects of L-aC on stabilized human neoplastic cell lines were tested using the methylene blue assay.
(§2) Acute promyelocytic leukemia cell line (HL60) and prostate (Du 145), colon (HT 29) and breast (MCF 7) adenocarcinoma cell lines have been used.
(§3) Cell suspensions at concentrations of 10^5 cells/ml were prepared.
(§4) 100 μl of the obtained cell suspension were inoculated on 96 well plates and incubated at 37° for 12 hours, to obtain cell adhesion to the plates. After 12 hours, L-aC was added at the concentrations of 0.2 mg/ml, 2 mg/ml, 20 mg/ml. After 72 hours, the culture medium was removed and 100 μl of 100% ethanol were added for 30 min. Subsequently ethanol was removed and 1% methylene-blue was added for 2 hours. The dye was then removed and the plates were dried before adding 1M HCl.
(§5) The cytotoxicity percentage was calculated using the following formula:
(§6) (1−[O^D treated cells/O^D control cells)×100.
(§7) The optical density was evaluated by Uniskan micro-spectrophotometer with 630 nmwavelength filter.

[4] = system: prostate (Du 145) adenocarcinoma cell line; test: as above; assay type: cell-based; details: prostate carcinoma line
Description: as §1, §2, §3, §4, §5, §6, §7

[5] = system: Yoshida ascitogenic tumour; test: Sprague-Dowley rats inoculated with Yoshida ascitogenic tumour, treatment; assay type: in vivo; set-up: surviving animals (mortality curve): unit not given here
Description: Yoshida tumour is a transplantable, ascitogenic experimental tumour consisting of histiocyte-like immortalized cells.
The tumour causes, on the average 7 days after the intraperitoneal inoculation in Sprague-Dowley rat, the formation of 120-150 ml of ascites which reappears 3-4 days after complete emptying of the peritoneal cavity and induces death of all the animals within 14-16 days after inoculation.
300 Sprague-Dowley rats (4 months old, mean weight: 200 g), under standard feeding and temperature conditions (25° C.), were inoculated with Yoshida tumour. The onset and evolution of the tumour were checked by daily observation and weighing. One week after the inoculation of the tumour, rats were divided in 6 groups and treated as follows:
Group 1: 50 rats were subjected, on day 8 to 14, to daily emptying of 5 ml of ascitic fluid which was substituted with 5 ml of saline solution;
Group 2: 50 rats were subjected, on day 8 to 14, to daily emptying of 5 ml of ascitic fluid which was substituted with 50 mg of L-aC diluted in 5 ml of saline solution;
Group 3: 25 rats were subjected, on day 8 to 14, to daily emptying of 5 ml of ascitic fluid which was substituted with 80 mg of L-aC diluted in 5 ml of saline solution;
Group 4: 25 rats were subjected, on day 8 to 14, to daily emptying of 5 ml of ascitic fluid which was substituted with 120 mg of L-aC diluted in 5 ml of saline solution;
Group 5: 100 rats were subjected, on day 8 to 14, to evacuation on alternate days of 5 ml of ascitic fluid which was substituted with 25 mg of L-aC diluted in 5 ml of saline solution;
Group 6: 50 rats were used as control and received no treatment.

## CC(=O)OC(CC(=O)[O-])C[N+](C)(C)C [L-aC, L-acetylcarnitine hydrochloride]
[1]; 2 patients completed follow-up, 6 still under study
  disease status at follow-up: free from the disease
[1]; 10 patients, oral 2 g/day 10 to 12 months after endoscopic resection, first and subsequent quarterly controls
  endoscopic control for tumour: all patients were negative for the tumour
[1]; oral 2 g/day, 10 to 12 months
  hematochemical parameters and side effects during treatment: Neither significant changes in the hematochemical parameters nor side effects of any kind were observed
[2]; all samples
  activity versus that on cells from the primitive tumours: comparable
[2]; tumour with pre-treatment ratio 20/80
  G1/S+G2M ratio after treatment: 74/26
[3]
  cytotoxicity: 52%
[4]
  cytotoxicity: 58%
[5]; 6 animals sacrified at end of observation
  necroscopy finding: no presence of the disease
[5]; 47 Group 5 survivors treated a further 2 weeks
  animals died during further treatment: 21
[5]; Group 2, 50 mg lac i.p. daily day 8-14, day 0 transplant
  surviving animals (mortality curve): 50
[5]; Group 2, 50 mg lac i.p. daily day 8-14, day 1
  surviving animals (mortality curve): 50
[5]; Group 2, 50 mg lac i.p. daily day 8-14, day 2
  surviving animals (mortality curve): 50
[5]; Group 2, 50 mg lac i.p. daily day 8-14, day 3
  surviving animals (mortality curve): 50
[5]; Group 2, 50 mg lac i.p. daily day 8-14, day 4
  surviving animals (mortality curve): 50
[5]; Group 2, 50 mg lac i.p. daily day 8-14, day 5
  surviving animals (mortality curve): 50
[5]; Group 2, 50 mg lac i.p. daily day 8-14, day 6
  surviving animals (mortality curve): 50
[5]; Group 2, 50 mg lac i.p. daily day 8-14, day 7
  surviving animals (mortality curve): 50
[5]; Group 2, 50 mg lac i.p. daily day 8-14, day 8
  surviving animals (mortality curve): 42
[5]; Group 2, 50 mg lac i.p. daily day 8-14, day 9
  surviving animals (mortality curve): 32
[5]; Group 2, 50 mg lac i.p. daily day 8-14, day 10
  surviving animals (mortality curve): 21
[5]; Group 2, 50 mg lac i.p. daily day 8-14, day 11
  surviving animals (mortality curve): 17
[5]; Group 2, 50 mg lac i.p. daily day 8-14, day 12
  surviving animals (mortality curve): 12
[5]; Group 2, 50 mg lac i.p. daily day 8-14, day 13
  surviving animals (mortality curve): 5
[5]; Group 2, 50 mg lac i.p. daily day 8-14, day 14
  surviving animals (mortality curve): 0
[5]; Group 2, 50 rats, 50 mg L-aC i.p. daily day 8 to 14
  day after inoculation by which all animals died: ≤ 14 days
[5]; Group 3, 80 mg lac i.p. daily from day 8, day 0 transplant
  surviving animals (mortality curve): 25
[5]; Group 3, 80 mg lac i.p. daily from day 8, day 1
  surviving animals (mortality curve): 25
[5]; Group 3, 80 mg lac i.p. daily from day 8, day 2
  surviving animals (mortality curve): 25
[5]; Group 3, 80 mg lac i.p. daily from day 8, day 3
  surviving animals (mortality curve): 25
[5]; Group 3, 80 mg lac i.p. daily from day 8, day 4
  surviving animals (mortality curve): 25
[5]; Group 3, 80 mg lac i.p. daily from day 8, day 5
  surviving animals (mortality curve): 25
[5]; Group 3, 80 mg lac i.p. daily from day 8, day 6
  surviving animals (mortality curve): 25
[5]; Group 3, 80 mg lac i.p. daily from day 8, day 7
  surviving animals (mortality curve): 25
[5]; Group 3, 80 mg lac i.p. daily from day 8, day 8
  surviving animals (mortality curve): 12
[5]; Group 3, 80 mg lac i.p. daily from day 8, day 9
  surviving animals (mortality curve): 5
[5]; Group 3, 80 mg lac i.p. daily from day 8, day 10
  surviving animals (mortality curve): 0
[5]; Group 3, 25 rats, 80 mg L-aC i.p.
  time after 1st administration by which all animals died: ≤ 72 h
[5]; Group 3, 25 rats, 80 mg L-aC i.p. daily from day 8
  day after inoculation by which all animals died: ≤ 10 days
[5]; Group 4, 120 mg lac i.p. daily from day 8, day 0 transplant
  surviving animals (mortality curve): 25
[5]; Group 4, 120 mg lac i.p. daily from day 8, day 1
  surviving animals (mortality curve): 25
[5]; Group 4, 120 mg lac i.p. daily from day 8, day 2
  surviving animals (mortality curve): 25
[5]; Group 4, 120 mg lac i.p. daily from day 8, day 3
  surviving animals (mortality curve): 25
[5]; Group 4, 120 mg lac i.p. daily from day 8, day 4
  surviving animals (mortality curve): 25
[5]; Group 4, 120 mg lac i.p. daily from day 8, day 5
  surviving animals (mortality curve): 25
[5]; Group 4, 120 mg lac i.p. daily from day 8, day 6
  surviving animals (mortality curve): 25
[5]; Group 4, 120 mg lac i.p. daily from day 8, day 7
  surviving animals (mortality curve): 25
[5]; Group 4, 120 mg lac i.p. daily from day 8, day 8
  surviving animals (mortality curve): 0
[5]; Group 4, 25 rats, 120 mg L-aC i.p.
  time from 1st administration by which all animals died: ≤ 24 h
[5]; Group 4, 25 rats, 120 mg L-aC i.p. from day 8
  day after inoculation by which all animals died: ≤ 8 days
[5]; Group 5, 25 mg lac i.p. alternate days day 8-14, day 0 transplant
  surviving animals (mortality curve): 100
[5]; Group 5, 25 mg lac i.p. alternate days day 8-14, day 1
  surviving animals (mortality curve): 100
[5]; Group 5, 25 mg lac i.p. alternate days day 8-14, day 2
  surviving animals (mortality curve): 100
[5]; Group 5, 25 mg lac i.p. alternate days day 8-14, day 3
  surviving animals (mortality curve): 100
[5]; Group 5, 25 mg lac i.p. alternate days day 8-14, day 4
  surviving animals (mortality curve): 100
[5]; Group 5, 25 mg lac i.p. alternate days day 8-14, day 5
  surviving animals (mortality curve): 100
[5]; Group 5, 25 mg lac i.p. alternate days day 8-14, day 6
  surviving animals (mortality curve): 100
[5]; Group 5, 25 mg lac i.p. alternate days day 8-14, day 7
  surviving animals (mortality curve): 96
[5]; Group 5, 25 mg lac i.p. alternate days day 8-14, day 8
  surviving animals (mortality curve): 91
[5]; Group 5, 25 mg lac i.p. alternate days day 8-14, day 9
  surviving animals (mortality curve): 83
[5]; Group 5, 25 mg lac i.p. alternate days day 8-14, day 10
  surviving animals (mortality curve): 79
[5]; Group 5, 25 mg lac i.p. alternate days day 8-14, day 11
  surviving animals (mortality curve): 61
[5]; Group 5, 25 mg lac i.p. alternate days day 8-14, day 12
  surviving animals (mortality curve): 50
[5]; Group 5, 25 mg lac i.p. alternate days day 8-14, day 13
  surviving animals (mortality curve): 48
[5]; Group 5, 25 mg lac i.p. alternate days day 8-14, day 14
  surviving animals (mortality curve): 47
[5]; Group 5, 100 rats, 25 mg L-aC i.p. alternate days, day 15 after inoculation
  animals still alive: 47
[5]; Group 5, day 15 after inoculation
  ascites amount in survivors: remarkable reduction of the ascites amount
[5]; Group 5, day 28
  general condition of survivors: good health
[5]; Group 5, day 28 after inoculation
  ascitic fluid in survivors: complete disappearance of the ascitic fluid
[5]; Group 5 survivors, further 6 weeks
  deaths during further observation: no deaths occurred
[5]; of 47 Group 5 survivors, day 28 after inoculation
  animals still alive: 26
